Measurements taken from the CheMixHub viscosity set.
“And” between values parts separate entries of the source, which are not always exact repeats. Equal values may be shown once.

Tests used:
[1] = xn = mol fraction of the nth substance listed; settings: 101 kPa

O=C1CCCN1
101.33 kPa
Settings | viscosity [mPa·s]
304.15 K | 10.5
308.15 K | 9.102
313.15 K | 7.687
318.15 K | 6.593
323.15 K | 5.666

OCCC1CCCCN1 (stereo not given)
Settings | viscosity [mPa·s]
313.15 K, 101.3 kPa | 77.17

OCCCCO
viscosity
Settings | 293.15 K | 298.15 K | 303.15 K | 308.15 K | 313.15 K | 318.15 K | 323.15 K
101 kPa | 96.5 mPa·s and 96.8 mPa·s | 72.8 mPa·s and 72.1 mPa·s and 75.6 mPa·s | 54.3 mPa·s and 57.2 mPa·s and 50.53 mPa·s | – | 32.8 mPa·s and 35.4 mPa·s and 37.03 mPa·s | – | –
101.3 kPa | 92.14 mPa·s | 71.91 mPa·s | – | 45.04 mPa·s | 36.26 mPa·s | 29.38 mPa·s | 24.18 mPa·s
101.33 kPa | 91.27 mPa·s | 72.83 mPa·s | 56.05 mPa·s | 45.06 mPa·s | 36.02 mPa·s | 30.61 mPa·s | –

[Cl-].[Cl-].[Cl-].[Cl-].[Sn+4]
101 kPa
Settings | viscosity
293.15 K | 0.951 mPa·s and 0.927 mPa·s
298.15 K | 0.919 mPa·s and 0.8145 mPa·s
313.15 K | 0.715 mPa·s and 0.758 mPa·s
323.15 K | 0.668 mPa·s and 0.683 mPa·s and 0.683 mPa·s

Cc1cc(C)cc(C)c1 + c1ccccc1
viscosity [mPa·s], [1]
Settings | x1 = 0.0992 | x1 = 0.1997 | x1 = 0.3013 | x1 = 0.4024 | x1 = 0.504 | x1 = 0.5997 | x1 = 0.7035 | x1 = 0.7997 | x1 = 0.9018
303 K | 0.5455 | 0.5407 | 0.5421 | 0.546 | 0.5511 | 0.5579 | 0.5714 | 0.5833 | 0.596
313 K | 0.4826 | 0.4807 | 0.4822 | 0.4861 | 0.4905 | 0.4999 | 0.5097 | 0.5201 | 0.5336
323 K | 0.4308 | 0.4229 | 0.4325 | 0.4374 | 0.439 | 0.4507 | 0.4587 | 0.4681 | 0.4791

NC(=O)c1ccccc1 + c1ccncc1
[1], 298.15 K
Settings | viscosity [mPa·s]
x1 = 0.0343 | 1.055
x1 = 0.08504 | 1.331
